≈ marks a conversion by molar mass, not a printed value.

This test relates to Mycobacterium tuberculosis H37Rv. As to the kind of experiment: GSK_TB: Minimum inhibitory concentration against isoniazid and rifampicin resistant clinical isolates of Mycobacterium tuberculosis. It counts as functional. The conditions noted are these: ATCC25618.
`CNc1snc(C)c1C(=O)NCCOc1ccc(OC)cc1` yielded an MIC of 0.9 µM (≈ 0.289 µg/mL).
With `COc1ccc(-c2nnc3sc(Cc4csc(C)n4)nn23)cc1`, the MIC stood at 1.3 µM (≈ 0.446 µg/mL).
The result for `Nc1ccc(C(O)CNCCc2ccccc2)cc1O` (centres undefined) reads 1.3 µM (≈ 0.354 µg/mL).
For `O=C(Nc1nc2c(s1)CCCc1cccnc1-2)c1ccccc1C(F)(F)F`, the MIC was 1.3 µM (≈ 0.506 µg/mL).
Molecule `NC(=O)c1ccc(CN(C2CC2)S(=O)(=O)c2ccccc2F)cc1` registered an MIC of 5 µM (≈ 1.74 µg/mL).
The figure for `CN(Cc1ccc(Cl)cc1)C(=O)CCc1nc2ccccc2oc1=O` is 1.3 µM (≈ 0.464 µg/mL).
For `Clc1nnc(N2CCCC2)c2ccccc12`, the MIC was 0.6 µM (≈ 0.14 µg/mL).
Turning to `CCOCn1ccc(NS(=O)(=O)c2ccc(N)cc2)nc1=O`, the MIC was determined as 20 µM (≈ 6.49 µg/mL).
The figure for `COc1ccc(CCNC(=O)C2(n3cnnn3)CCCCC2)cc1` is 2.5 µM (≈ 0.824 µg/mL).

For the origin of these results see ChEMBL document CHEMBL3637782, “GSK Tres Cantos Follow-up TB Screening Data” (2016).
